Test results from patent US20150225790A1, “METHODS FOR IDENTIFYING SUBJECTS WITH AN INCREASED LIKELIHOOD OF RESPONDING TO CCR1 ANTAGONIST” (BRISTOL-MYERS SQUIBB COMPANY, priority 2012, published 2015).

Legend:
[1] = system: CLEC5A; experiment: Phase 1 trial, ex vivo RANTES-stimulated whole blood qRT-PCR: CLEC5A; assay type: in vivo, human; conditions: healthy volunteers, single and multiple oral doses; ex vivo 25 nM RANTES, 2 hours, 37° C.
Description: (§1) FIGS. 2A-D show relative CLEC5A and MERTK expression levels in a Phase I clinical trial. Healthy volunteers were treated with single or multiple doses of a CCR1 antagonist through oral administration at various dose levels; blood samples from subjects were treated ex vivo with CCR1 ligand RANTES. RNA was isolated and analyzed by qRT-PCR. Expression levels are represented as (negative) change in median CT (cycle threshold) value between the target (CLEC5A or MERTK) and the endogenous control (GAPDH) as a function of time.
(§2) In this study (Example 2), healthy volunteers were treated with single or multiple doses of a CCR1 antagonist through oral administration at various dose levels. Pharmacodynamic effects of the compound were assessed using an ex vivo functional assay at various times post dosing. For the assay, whole blood was collected at indicated time points following dosing with the CCR1 antagonist and stimulated ex vivo for 2 hours at 37° C. with 25 nM recombinant human RANTES. After the incubation, RNA was isolated and CLEC5A and MERTK mRNA levels, relative to the GAPDH housekeeping gene, were measured by qRT-PCR in triplicate at each time-point for each subject. The median cycle time (CT) for each gene was evaluated and changes in the CT values (ΔCT) were calculated by subtracting the median GAPDH CT value from the corresponding median values for CLEC5A CT or MERTK CT. […]

[2] = system: MERTK; experiment: Phase 1 trial, ex vivo RANTES-stimulated whole blood qRT-PCR: MERTK; assay type: in vivo, human; conditions: healthy volunteers, single and multiple oral doses; ex vivo 25 nM RANTES, 2 hours, 37° C.
Description: as §1, §2

[3] = system: MERTK; experiment: Whole genome mRNA profiling, whole blood + RANTES: MERTK; assay type: cell-based, human; conditions: probe 206028_s_at; healthy volunteer whole blood, RANTES 100 nM +/- BMS-817399 1 uM; 4 hours
Description: (§3) Gene profiling experiments to identify genes downstream of CCR1 signaling (via CCR1 ligand stimulation) were performed. It was shown that these genes were blocked following treatment with a CCR1 antagonist. Whole blood from three healthy volunteers was treated with RANTES (100 nM, CCL5), in the presence and absence of the CCR1 antagonist (50 nM, 1 μM) for 4 and 24 hours. Following the incubation, mRNA was isolated for whole genome mRNA profiling.
(§4) Lyophilized human recombinant CCR1 ligand RANTES (Peprotech, Rocky Hill, N.J.) was reconstituted to 100 μM per the manufacturer's instructions. BMS-817399 was reconstituted to 10 mM in 100% DMSO (Sigma-Aldrich, St. Louis Mo.) and further diluted 1:50 in 10% DMSO. […] RNA quantity and quality were assessed on the ND-8000 spectrophotometer (Thermo Scientific, Wilmington, Del.) and RNA integrity was assessed on the AGILENT® 2100 Bioanalyzer using the RNA 6000 Nano Lab Chip kit (Agilent Technologies, Santa Clara, Calif.).
(§5) RNA samples with yields ≧1.5 μg and RIN (RNA integrity number) values of 6.5 and above were randomized in 96-well plates and normalized to a concentration of 250 ng/μL in preparation for microarray analysis. […] Data obtained from the microarray analysis were analyzed by statisticians internal to Bristol-Myers Squibb. […]

[4] = system: PHLDA2; experiment: Whole genome mRNA profiling, whole blood + RANTES: PHLDA2; assay type: cell-based, human; conditions: probe 209803_s_at; healthy volunteer whole blood, RANTES 100 nM +/- BMS-817399 1 uM
Description: as §3, §4, §5

[5] = system: FPRL2; experiment: Whole genome mRNA profiling, whole blood + RANTES: FPRL2; assay type: cell-based, human; conditions: probe 214560_at; healthy volunteer whole blood, RANTES 100 nM +/- BMS-817399 1 uM; 4 hours
Description: as §3, §4, §5

[6] = system: KYNU; experiment: Whole genome mRNA profiling, whole blood + RANTES: KYNU; assay type: cell-based, human; conditions: probe 217388_s_at; healthy volunteer whole blood, RANTES 100 nM +/- BMS-817399 1 uM
Description: as §3, §4, §5

[7] = system: CD86; experiment: Whole genome mRNA profiling, whole blood + RANTES: CD86; assay type: cell-based, human; conditions: probe 210895_s_at; healthy volunteer whole blood, RANTES 100 nM +/- BMS-817399 1 uM
Description: as §3, §4, §5

[8] = Phase 1 trial in healthy human subjects: safety; assay type: in vivo
Excerpt: Current standard of care for the treatment of RA includes disease-modifying anti-rheumatic drugs that decrease immune activation and subsequent inflammation. However, a large proportion of patients are non-responsive to these medications, thus resulting in progression of disease symptoms. […] Further, identification of predictive biomarkers may allow for patient stratification in future clinical trials. Identification of patients most likely to respond favorably to the CCR1 antagonist may provide justification for use of a CCR1 antagonist earlier in the course of treatment, potentially preventing extensive structural damage of the joints.

[9] = system: FCN1; experiment: Whole genome mRNA profiling, whole blood + RANTES: FCN1; assay type: cell-based, human; conditions: probe 206237_at; healthy volunteer whole blood, RANTES 100 nM +/- BMS-817399 1 uM; 24 hours
Description: as §3, §4, §5

[10] = system: CLEC5A; experiment: Whole genome mRNA profiling, whole blood + RANTES: CLEC5A; assay type: cell-based, human; conditions: probe 219890_at; healthy volunteer whole blood, RANTES 100 nM +/- BMS-817399 1 uM; 4 hours
Description: as §3, §4, §5

[11] = system: CSPG2; experiment: Whole genome mRNA profiling, whole blood + RANTES: CSPG2; assay type: cell-based, human; conditions: probe 204620_s_at; healthy volunteer whole blood, RANTES 100 nM +/- BMS-817399 1 uM
Description: as §3, §4, §5

[12] = system: MERTK; experiment: In vitro treatment of RA patient whole blood, qRT-PCR: MERTK; assay type: cell-based, human; conditions: 500 nM CCR1 antagonist, 3 hours
Description: (§6) FIGS. 3A-B show relative CLEC5A and MERTK expression levels in RA patient blood. Whole blood from RA patients was shipped overnight and treated with 500 nM CCR1 antagonist for 3 hours. RNA was isolated and analyzed by qRT-PCR. Expression levels are represented as mRNA levels relative to the untreated control samples as a function of treatment condition. Percent inhibition of gene expression by the investigational drug was calculated and is represented as “% change”. C-reactive protein (CRP) levels of subjects, as determined by Bioreclamation, are listed as well.
(§7) Whole blood, collected from RA patients, was stimulated with 500 nM of a CCR1 antagonist for 3 hours at 37° C. After the incubation, RNA was isolated and the gene expression levels of CLEC5A, MERTK, and the endogenous control HPRT1 were assessed by qRT-PCR for each subject. CLEC5A and MERTK mRNA levels (normalized to that of HPRT1) were calculated relative to the untreated control sample for each patient.
(§8) Whole blood, drawn in EDTA VACUTAINER® tubes from RA patients, was obtained from Bioreclamation for in vitro treatment with BMS-817399 and subsequent qRT-PCR analysis. […] Serum CRP and whole blood ESR levels of qualified subjects were also assessed by Bioreclamation. […] Data were analyzed in the SDS software for relative quantitation. […]

[13] = system: CLEC5A; experiment: In vitro treatment of RA patient whole blood, qRT-PCR: CLEC5A; assay type: cell-based, human; conditions: 500 nM CCR1 antagonist, 3 hours
Description: as §6, §7, §8

[14] = system: SPP1; experiment: Whole genome mRNA profiling, whole blood + RANTES: SPP1; assay type: cell-based, human; conditions: probe 209875_s_at; healthy volunteer whole blood, RANTES 100 nM +/- BMS-817399 1 uM; 24 hours
Description: as §3, §4, §5

[15] = system: TLR8; experiment: Whole genome mRNA profiling, whole blood + RANTES: TLR8; assay type: cell-based, human; conditions: probe 220832_at; healthy volunteer whole blood, RANTES 100 nM +/- BMS-817399 1 uM
Description: as §3, §4, §5

## CC(C)[C@@H](NC(=O)NCC(C)(C)O)C(=O)N1CC[C@](O)(c2ccc(Cl)cc2)C(C)(C)C1 [BMS-817399]
[1]
  inhibition of CLEC5A gene expression in whole blood: rapid and potent inhibition
[2]
  inhibition of MERTK gene expression in whole blood: rapid and potent inhibition
[3]
  MERTK expression, Fold Change: −2.417
  MERTK expression, Mean: −1.274
[4]
  PHLDA2 expression, Fold Change: −2.252
  PHLDA2 expression, Mean: −1.171
[5]
  FPRL2 expression, Fold Change: −3.571
  FPRL2 expression, Mean: −1.836
[6]
  KYNU (kynureninase) expression, Fold Change: −2.32
  KYNU (kynureninase) expression, Mean: −1.214
[7]
  CD86 expression, Fold Change: −2.559
  CD86 expression, Mean: −1.356
[8]
  safety profile: acceptable safety profile
[9]
  FCN1 (ficolin 1) expression, Fold Change: −2.234
  FCN1 (ficolin 1) expression, Mean: −1.16
[10]
  CLEC5A expression, Fold Change: −5.123
  CLEC5A expression, Mean: −2.357
[11]
  CSPG2 (versican) expression, Fold Change: −4.39
  CSPG2 (versican) expression, Mean: −2.134
[12]
  decrease of MERTK expression levels relative to the untreated control samples: more than 30%
[13]
  decrease of CLEC5A expression levels relative to the untreated control samples: more than 30%
[14]
  SPP1 (osteopontin) expression, Fold Change: −6.547
  SPP1 (osteopontin) expression, Mean: −2.711
[15]
  TLR8 expression, Fold Change: −2.232
  TLR8 expression, Mean: −1.158
